For one assay, the system named is IL-8. Kind of assay: Bioplex analysis of IL-8 release in TNF-α-induced IB3-1 cells. In kind it is cell-based, human. The following applies: 1 μM, compared to untreated TNF-α-stimulated IB3-1 cells, 5 h pretreatment then TNF-α 24 h. As to the method: (§1) The Bioplex cytokine assay is designed for the multiplexed quantitative measurement of multiple cytokines in a single well using as little as 50 μl of sample. In our experiments, the premixed multiplex beads (27-plex) of the Bioplex human cytokines were used. 50 μl of cytokine standards or samples (supernatants recovered from treated cells and diluted to 2 μg/μl) were incubated with 50 μl of anticytokine conjugated beads in 96-well filter plates for 30 min at room temperature with shaking. Plates were washed by vacuum filtration three times with 100 μl of Bioplex wash buffer, 25 μl of diluted detection antibody were added, and plates were incubated for 30 min at room temperature with shaking. After three filter washes, 50 μl of streptavidin-phycoerythrin were added, and the plates were incubated for 10 min at room temperature with shaking. Finally, plates were washed by vacuum filtration three times, beads were suspended in Bioplex assay buffer, and samples were analyzed on a Bio-Rad 96-well plate reader using the Bioplex Suspension Array System and Bioplex Manager software (Bio-Rad Laboratories Inc., Hercules, CA).
(§2) In order to verify the effects on the secretion of IL-8 by IB3-1 cells, Luminex technology was employed to detect and quantify proteins secreted into the medium. […]

The test system of assay [1] is other cytokines, chemokines, and growth factors. Nature of the assay: Bioplex analysis of other secreted proteins in TNF-α-induced IB3-1 cells. The conditions noted are these: 1 μM, TNF-α-stimulated IB3-1 cells, all secreted proteins analyzed except IP-10. In kind it is cell-based, human. As to the method:
as §1, §2

The next assay has as its system IB3-1 cells. Nature of the assay: Cell proliferation assay on IB3-1 cells. In kind it is cell-based. The conditions noted are these: Homo sapiens, cell number/ml after 48 h of treatment. As to the method:
Monolayers of 60% confluent IB3-1 cells were seeded in 24- or 12-well plates in LHC-8 medium in the presence of 5% FBS. After 24 h, TMA derivatives were added at serial dilutions and incubated for further 2-3 days. The effects of compounds (TMA derivatives) on the cell proliferation were analyzed as elsewhere described. A first analysis was performed with serial dilutions to obtain 50 μM, 200 μM, and 800 μM solutions. In order to determine IC50 values, the following concentrations were used 12.5, 25, 50, 100, 200, and 800 μM. In order to prepare the cells for counting, they were washed with PBS 1X and detached with trypsin/EDTA. Cells were suspended in physiological solution and counted with a Z2 Coulter Counter (Coulter Electronics, Hialeah, FL, USA). The cell number/ml was determined as IC50 after 2 days of culture, when untreated cells are in log phase of cell growth.
In order to obtain preliminary information on the biological properties of TMA derivatives, their effects on cell growth were examined on IB3-1 cell line, excellent biological model to study new potential anti-inflammatory molecules. The use of this cell line to study the expression of proinflammatory molecules under a variety of stimuli is well established. Monolayers of 60% confluent IB3-1 cells were seeded in 12-well plate in LHC-8 medium with 5% FBS. After 24 h, compounds were added at different concentrations and the cell number/ml was determined after further 48 h of culture.

In another assay the test system is IP-10. Nature of the assay: Bioplex analysis of IP-10 secretion in TNF-α-induced IB3-1 cells. In kind it is cell-based, human. The conditions noted are these: 1 μM, TNF-α-stimulated IB3-1 cells, three independent experiments. As to the method: as §1, §2

Each structure is given as a SMILES string. Some results are limits rather than exact numbers.

In the case of `Cc1oc2c(C)cc3c(C)cc(=O)oc3c2c1C` [Compound 1], the “Reduction of IL-8 secretion” value in the assay on IL-8 is “about 50%”. Moreover, in assay [1], the “Variation of other secreted proteins” value is “less than 10%”. The IC50 with IB3-1 cells is > 800 µM. Moreover, the “Increase of TNF-α-inducible IP-10” value in the assay with IP-10 is “more than twofold”.

For the origin of these results see publication PMC5635289, “Differential Effects of Angelicin Analogues on NF-κB Activity and IL-8 Gene Expression in Cystic Fibrosis IB3-1 Cells” (Mediators of Inflammation, 2017).
